In data set [1] the test system is spasmodic seizures caused by pentetrazole. As to the kind of experiment: antipentetrazole test (protection from pentetrazole-induced seizures). The class given is in vivo, female rats. Conditions: Rattus norvegicus, po, read-out: ED50 (dosage which protects 50% of the experimental animals from the spasmodic seizures caused by pentetrazole). As for the experimental part:
As mentioned earlier, the compounds of formula I have valuable pharmacological properties.
(§1) In this animal test, the compound under investigation is adminstered orally or intravenously to female rats and 30 minutes later there are administered intraperitioneally 120 mg/kg of pentetrazole, which causes emprosthotonus and tonic stretchings of the fore and/or hind limbs in unprotected animals 1-4 minutes after the injection. Ten (10) experimental animals are used per dosage of test substance. After counting the protected experimental animals, the ED50 is determined according to the […]. The ED50 is that dosage which protects 50% of the experimental animals from the spasmodic seizures caused by pentetrazole. The results which have been obtained with representative members of the class of compound defined by formula I in the experiment described previously are compiled in the following Table. Moreover, the Table contains data concerning the acute toxicity (LD50) of some of the compounds of formula I in mg/kg in the case of single oral administration to mice.

Data set [2] in a line: acute toxicity, single oral administration to mice. Conditions: mouse, in vivo, p.o. As for the experimental part:
as §1

Setting [3] is: female rats, compound given 30 minutes before 120 mg/kg pentetrazole intraperitoneally, 10 animals per dosage.

Like-named read-outs stand apart in the source and are kept apart here.

As a reminder, the ED50 is the midpoint of the dose-response relation. A word on the LD50: it is the dose at which mortality reaches 50%. Higher therefore signals lower toxicity. Take `CO[C@H]1CCN(C(=O)c2cc(-c3ccccc3)c(=O)n3ccc4ccsc4c23)C1` [S, (S)-3-methoxy-1-[(7-oxo-8-phenyl-7H-thieno[2,3-a]-quinolizin-10-yl)carbonyl]pyrrolidine]: the ED50 in data set [1] stood at 0.87 mg/kg. This molecule also had an LD50 in data set [2] of 5000 mg/kg.
`CCOC1CCN(C(=O)c2cc(-c3ccccc3)c(=O)n3c2-c2cc(Cl)ccc2CC3)C1` (centres unmarked) [Q, 1-[(10-Chloro-6,7-dihydro-4-oxo-3-phenyl-4H-benzo[a]quinolizin-1-yl)carbonyl]-3-ethoxypyrrolidine]: in data set [1], the ED50 was found to be 3.1 mg/kg. In data set [2], this molecule showed an LD50 of more than 5000 mg/kg.
For `C[C@@H]1CN(C(=O)c2cc(-c3ccccc3)c(=O)n3c2-c2sccc2CC3)C[C@H](C)O1` [I, cis-4-[(4,5-dihydro-7-oxo-8-phenyl-7H-thieno[2,3-a]-quinolizin-10-yl)carbonyl]-2,6-dimethylmorpholine], in data set [1] (setting [3]), the 50% effective dose (ED50) was 5.9 mg/kg. Further, in data set [2], the LD50 is more than 5000 mg/kg.
With `CCN(CCOC)C(=O)c1cc(-c2ccccc2)c(=O)n2ccc3ccsc3c12` [M, N-ethyl-N-(2-methoxyethyl)-7-oxo-8-phenyl-7H-thieno[2,3-a]quinolizine-10-carboxamide], in data set [1], the ED50 worked out at 5 mg/kg. The molecule also displayed an LD50 in data set [2] of 5000 mg/kg.
On to `COC[C@@H]1CCCN1C(=O)c1cc(-c2ccccc2)c(=O)n2ccc3ccsc3c12` [F, (S)-2-methoxymethyl-1-[(7-oxo-8-phenyl-7H-thieno[2,3-a]quinolizin-10-yl)carbonyl]pyrrolidine], for which the 50% effective dose (ED50) in data set [1] was determined as 2.8 mg/kg. Besides, the median lethal dose (LD50) in data set [2] stood at 5000 mg/kg.
In the case of `O=C(c1cc(-c2ccccc2)c(=O)n2ccc3ccsc3c12)N1CCC[C@H]1CO` [E, (S)-1-[(7-oxo-8-phenyl-7H-thieno[2,3-a]quinolizin-10-yl)carbonyl]-2-pyrrolidinemethanol], the ED50 in data set [1] was 3.5 mg/kg. The molecule also gave a median lethal dose (LD50) in data set [2] of 625 mg/kg.
Turning to `COC1CCN(C(=O)c2cc(-c3ccccc3)c(=O)n3ccc4ccc(Cl)cc4c23)CC1` [L, 1-[(10-Chloro-3-phenyl-4-oxo-4H-benzo[a]quinolizin-1-yl)carbonyl]-4-methoxypiperidine], the ED50 in data set [1] stood at 0.22 mg/kg. In data set [2], the LD50 was more than 5000 mg/kg.
With `COC[C@@H]1CCCN1C(=O)c1cc(-c2ccccc2)c(=O)n2c1-c1cc(Cl)ccc1CC2` [T, (S)-1-[(10-Chloro-6,7-dihydro-4-oxo-3-phenyl-4H-benzo[a]quinolizin-1-yl)carbonyl]-2-(methoxymethyl)pyrrolidine], the ED50 in data set [1] came to 3.8 mg/kg. The molecule also showed an LD50 in data set [2] of more than 5000 mg/kg.
Turning to `CO[C@@H]1CCN(C(=O)c2cc(-c3ccccc3)c(=O)n3ccc4ccsc4c23)C1` [R, (R)-3-methoxy-1-[(7-oxo-8-phenyl-7H-thieno[2,3-a]-quinolizin-10-yl)carbonyl]pyrrolidine], the ED50 in data set [1] is 0.17 mg/kg. In addition, the LD50 in data set [2] amounted to 1250 mg/kg.
Turning to `COC1CCN(C(=O)c2cc(-c3ccccc3)c(=O)n3c2-c2cc(Cl)ccc2CC3)CC1` [K], the ED50 in data set [1] is 0.56 mg/kg. In addition, the LD50 in data set [2] is more than 5000 mg/kg.
For `COC1CCN(C(=O)c2cc(-c3ccccc3)c(=O)n3ccc4ccc(Cl)cc4c23)C1` (centres unmarked) [G, 1-[(10-chloro-4-oxo-3-phenyl-4H-benzo[a]quinolizin-1-yl)carbonyl]-3-methoxypyrrolidine], the ED50 in data set [1] came out at 0.12 mg/kg. For the same molecule, the LD50 in data set [2] turned out to be 2500 mg/kg.
For `COCCNC(=O)c1cc(-c2ccccc2)c(=O)n2c1-c1cc(Cl)ccc1CC2` [Compound A, 10-Chloro-6,7-dihydro-N-(2-methoxyethyl)-4-oxo-3-phenyl-4H-benzo[a]quinolizine-1-carboxamide], in that order: 2.6 mg/kg and more than 5000 mg/kg.
On to `COCCN(C)C(=O)c1cc(-c2ccccc2)c(=O)n2ccc3ccsc3c12` [N, N-(2-Methoxyethyl)-N-methyl-7-oxo-8-phenyl-7H-thieno[2,3-a]quinolizine-10-carboxamide], for which the ED50 in data set [1] came out at 0.97 mg/kg. Also, in data set [2], the LD50 worked out at 625 mg/kg.
Consider `O=C(OCc1cc(-c2ccccc2)c(=O)n2c1-c1sccc1CC2)N1CCOCC1` [C, (4,5-Dihydro-7-oxo-8-phenyl-7H-thieno[2,3-a]quinolizin-10-yl)methyl 4-morpholinecarboxylate], for which, in data set [1], the ED50 came to 15.9 mg/kg.
Take `O=C(c1cc(-c2ccccc2)c(=O)n2c1-c1cc(Cl)ccc1CC2)N1CCC(O)CC1` [B, 1-[(10-Chloro-6,7-dihydro-4-oxo-3-phenyl-4H-benzo[a]quinolizin-1-yl)carbonyl]-4-piperidinol]: the ED50 in data set [1] (setting [3]) worked out at 5.4 mg/kg. Besides, the LD50 in data set [2] is more than 5000 mg/kg.
`O=C(c1cc(-c2ccccc2)c(=O)n2ccc3ccc(Cl)cc3c12)N1CCC[C@@H]1CO` [W, (R)-1-[(10-Chloro-4-oxo-3-phenyl-4H-benzo[a]quinolizin-1-yl)carbonyl]-2-pyrrolidinemethanol]: the ED50 in data set [1] came out at 0.51 mg/kg. This molecule also came in with an LD50 in data set [2] of more than 3000 mg/kg.
In the case of `O=C(c1cc(-c2ccccc2)c(=O)n2ccc3ccc(Cl)cc3c12)N1CCC[C@H]1CO` [H, (S)-1-[(10-chloro-4-oxo-3-phenyl-4H-benzo[a]quinolizin-1-yl)carbonyl]-2-pyrrolidinemethanol], in data set [1], the ED50 stood at 1.3 mg/kg. This molecule also showed an LD50 in data set [2] of more than 3000 mg/kg.
With `COC[C@H]1CCCN1C(=O)c1cc(-c2ccccc2)c(=O)n2ccc3ccc(Cl)cc3c12` [Y, (R)-1-[(10-Chloro-4-oxo-3-phenyl-4H-benzo[a]quinolizin-1-yl)carbonyl]-2-(methoxymethyl)pyrrolidine], in data set [1], the ED50 was found to be 0.41 mg/kg. In data set [2], this molecule yielded a 50% lethal dose (LD50) of 5000 mg/kg.
For `COC[C@H]1CCCN1C(=O)c1cc(-c2ccccc2)c(=O)n2ccc3ccsc3c12` [O, (R)-2-(methoxymethyl)-1-[(7-oxo-8-phenyl-7H-thieno[2,3-a]quinolizin-10-yl)carbonyl]pyrrolidine], in that order: 0.49 mg/kg and 5000 mg/kg.
Regarding `CC1CN(C(=O)c2cc(-c3ccccc3)c(=O)n3c2-c2cc(Cl)ccc2CC3)CC(C)O1` (centres unmarked) [D, 4-[(6,7-Dihydro-4-oxo-3-phenyl-10-chloro-4H-benzo[a]quinolizin-1-yl)carbonyl]-2,6-dimethylmorpholine], the ED50 in data set [1] was determined as 1.2 mg/kg. In data set [2], this molecule had an LD50 of more than 5000 mg/kg.
Taken in the same sequence, the figures for `COC1CN(C(=O)c2cc(-c3ccccc3)c(=O)n3ccc4ccsc4c23)C1` [V, 3-Methoxy-1-[(7-oxo-8-phenyl-7H-thieno[2,3-a]quinolizin-10-yl)carbonyl]azetidine] were 0.13 mg/kg and more than 5000 mg/kg.
On to `COC1CCN(C(=O)c2cc(-c3ccccc3)c(=O)n3c2-c2sccc2CC3)C1` (centres unmarked) [U, 1-[(4,5-Dihydro-7-oxo-8-phenyl-7H-thieno[2,3-a]quinolizin-10-yl)carbonyl]-3-methoxypyrrolidine], for which, in data set [1], the ED50 worked out at 2.7 mg/kg. In addition, in data set [2], the LD50 was more than 5000 mg/kg.
Taken in the same sequence, the figures for `COC[C@@H]1CCCN1C(=O)c1cc(-c2ccccc2)c(=O)n2ccc3ccc(Cl)cc3c12` [X, (S)-1-[(10-Chloro-4-oxo-3-phenyl-4H-benzo[a]quinolizin-1-yl)carbonyl]-2-(methoxymethyl)pyrrolidine] were 1.1 mg/kg and 5000 mg/kg.
Regarding `COC1CCN(C(=O)c2cc(-c3ccccc3)c(=O)n3c2-c2cc(Cl)ccc2CC3)C1` (centres unmarked) [P, 1-[(10-Chloro-6,7-dihydro-4-oxo-3-phenyl-4H-benzo[a]quinolizin-1-yl)carbonyl]-3-methoxypyrrolidine], the ED50 in data set [1] came to 0.31 mg/kg. This molecule also returned an LD50 in data set [2] of more than 5000 mg/kg.

The record behind these values is patent US4889848A, “Tricyclic pyridine derivatives” (Hoffmann-La Roche Inc., priority 1988, dated 1989).
